Results from publication PMC4138103 (PLoS ONE, 2014).
Like-named read-outs stand apart in the source and are kept apart here.

Tested on: Sprague-Dawley rats
Test: Retinoid analyses in liver, serum and kidney
Type: in vivo, Rattus norvegicus
Details: for CED, Kidney all-trans RA amount / CED, Kidney all-trans RA concentration / CED, Kidney retinol amount / CED, Kidney retinol concentration / CED, Liver retinol amount / CED, Liver retinol concentration / CED, Liver retinyl esters amount / CED, Liver retinyl esters concentration / CED, Serum retinol concentration / CED-L, Kidney all-trans RA amount / CED-L, Kidney all-trans RA concentration / CED-L, Kidney retinol amount / CED-L, Kidney retinol concentration / CED-L, Liver retinol amount / CED-L, Liver retinol concentration / CED-L, Liver retinyl esters amount / CED-L, Liver retinyl esters concentration / CED-L, Serum retinol concentration / CED, Liver 9c-4o-13,14-dh-RA amount / CED, Liver 9c-4o-13,14-dh-RA concentration / CED-L, Liver 9c-4o-13,14-dh-RA amount / CED-L, Liver 9c-4o-13,14-dh-RA concentration / CED, Liver all-trans RA amount / CED, Liver all-trans RA concentration / CED-L, Liver all-trans RA amount / CED-L, Liver all-trans RA concentration / CED, Kidney retinyl esters amount / CED, Kidney retinyl esters concentration / CED-L, Kidney retinyl esters amount / CED-L, Kidney retinyl esters concentration: adipose tissue concentration based; for Emax: Rattus norvegicus, controls vs high dose according to the fitted model
Method: Retinoids in liver, serum, and kidney were analyzed according to Schmidt et al.. The polar retinoids 9-cis-retinoic acid (9-cis-RA), 13-cis-retinoic acid (13-cis-RA), 13-cis-4-oxo-retinoic acid (13-cis-4-o-RA), 9-cis-4-oxo-13,14-dihydro-retinoic acid (9-cis-4-o-13,14-dh-RA), all-trans retinoic acid (all-trans RA) and the apolar retinoids retinol and retinyl palmitate were extracted by a single liquid-extraction, separated from each other via solid-phase extraction using an aminopropyl phase, and then injected onto two different HPLC systems that were coupled with UV detection. […] The limits of detection (LOD) for all-trans RA and 9c-4o-13,14-dh-RA were 0.7 and 1.0 pmol/g tissue, and 0.3 and 0.6 pmol/ml serum, respectively. Retinol and retinyl palmitate were separated on a J'sphere ODS-H80 (4.6×150 mm, 4 µm particle size) obtained from YMC (Schermbeck, Germany), and were detected at 325 nm. The LOD for retinol and retinyl palmitate were 5.6 and 5.5 pmol/g tissue, and 4.2 and 4.2 pmol/ml serum, respectively.
Data were also analyzed using the BMD method, which is based on dose-response modeling of the full data set using a nested family of exponential and Hill models. The analyses were done on data of males and females combined, using sex as a covariate. […] In that case, different Critical Effect Doses (CEDs) and CEDs at the lowest bound of the confidence interval (CED-L) were generated for each sex. If no difference between sexes is detected, a CED and CED-Ls for the combined data is generated. However, this was also done if the curve fits are close, and separate analyses for males and females were then performed manually. CEDs and CED-Ls were calculated at the predefined Critical Effect Size (CES) of 5% (EFSA standard) or 10%.

SMILES: Clc1cc(Cl)c(-c2cc(Cl)c(Cl)c(Cl)c2Cl)cc1Cl [PCB 180, 2,2′,3′,4,4′,5,5′-heptachlorobiphenyl]
- CED, Kidney all-trans RA amount (F, CES 5%, model E2): 3290 µg/g lipid
- CED, Kidney all-trans RA concentration (F, CES 5%, model E2): 2930 µg/g lipid
- CED, Kidney retinol amount (F, CES 5%, model E2): 2240 µg/g lipid
- CED, Kidney retinol concentration (F, CES 5%, model E2): 2060 µg/g lipid
- CED, Liver retinol amount (F, CES 5%, model E2): 2840 µg/g lipid
- CED, Liver retinol concentration (F, CES 5%, model E2): 1000 µg/g lipid
- CED, Liver retinyl esters amount (F, CES 5%, model E2): 1620 µg/g lipid
- CED, Liver retinyl esters concentration (F, CES 5%, model E2): 793 µg/g lipid
- CED, Serum retinol concentration (F, CES 5%, model E2): 2470 µg/g lipid
- CED-L, Kidney all-trans RA amount (F, CES 5%, model E2): 2092 µg/g lipid
- CED-L, Kidney all-trans RA concentration (F, CES 5%, model E2): 2052 µg/g lipid
- CED-L, Kidney retinol amount (F, CES 5%, model E2): 1398 µg/g lipid
- CED-L, Kidney retinol concentration (F, CES 5%, model E2): 1346 µg/g lipid
- CED-L, Liver retinol amount (F, CES 5%, model E2): 1476 µg/g lipid
- CED-L, Liver retinol concentration (F, CES 5%, model E2): 762 µg/g lipid
- CED-L, Liver retinyl esters amount (F, CES 5%, model E2): 1206 µg/g lipid
- CED-L, Liver retinyl esters concentration (F, CES 5%, model E2): 670 µg/g lipid
- CED-L, Serum retinol concentration (F, CES 5%, model E2): 1521 µg/g lipid
- CED, Liver 9c-4o-13,14-dh-RA amount (F, CES 5%, model E4): 59.6 µg/g lipid
- CED, Liver 9c-4o-13,14-dh-RA concentration (F, CES 5%, model E4): 55.5 µg/g lipid
- CED-L, Liver 9c-4o-13,14-dh-RA amount (F, CES 5%, model E4): 37.4 µg/g lipid
- CED-L, Liver 9c-4o-13,14-dh-RA concentration (F, CES 5%, model E4): 39.6 µg/g lipid
- CED, Kidney all-trans RA amount (F, CES 10%, model E2): 6430 µg/g lipid
- CED, Kidney all-trans RA concentration (F, CES 10%, model E2): 5720 µg/g lipid
- CED, Kidney retinol amount (F, CES 10%, model E2): 4370 µg/g lipid
- CED, Kidney retinol concentration (F, CES 10%, model E2): 4030 µg/g lipid
- CED, Liver retinol amount (F, CES 10%, model E2): 5820 µg/g lipid
- CED, Liver retinol concentration (F, CES 10%, model E2): 2060 µg/g lipid
- CED, Liver retinyl esters amount (F, CES 10%, model E2): 3300 µg/g lipid
- CED, Liver retinyl esters concentration (F, CES 10%, model E2): 1630 µg/g lipid
- CED, Serum retinol concentration (F, CES 10%, model E2): 4820 µg/g lipid
- CED-L, Kidney all-trans RA amount (F, CES 10%, model E2): 4088 µg/g lipid
- CED-L, Kidney all-trans RA concentration (F, CES 10%, model E2): 4009 µg/g lipid
- CED-L, Kidney retinol amount (F, CES 10%, model E2): 2731 µg/g lipid
- CED-L, Kidney retinol concentration (F, CES 10%, model E2): 2630 µg/g lipid
- CED-L, Liver retinol amount (F, CES 10%, model E2): 3032 µg/g lipid
- CED-L, Liver retinol concentration (F, CES 10%, model E2): 1565 µg/g lipid
- CED-L, Liver retinyl esters amount (F, CES 10%, model E2): 2477 µg/g lipid
- CED-L, Liver retinyl esters concentration (F, CES 10%, model E2): 1375 µg/g lipid
- CED-L, Serum retinol concentration (F, CES 10%, model E2): 2970 µg/g lipid
- CED, Liver 9c-4o-13,14-dh-RA amount (F, CES 10%, model E4): 124 µg/g lipid
- CED, Liver 9c-4o-13,14-dh-RA concentration (F, CES 10%, model E4): 115 µg/g lipid
- CED-L, Liver 9c-4o-13,14-dh-RA amount (F, CES 10%, model E4): 77.9 µg/g lipid
- CED-L, Liver 9c-4o-13,14-dh-RA concentration (F, CES 10%, model E4): 82.1 µg/g lipid
- CED, Kidney retinol amount (M, CES 5%, model E2): 897 µg/g lipid
- CED, Kidney retinol concentration (M, CES 5%, model E2): 863 µg/g lipid
- CED, Liver all-trans RA amount (M, CES 5%, model E2): 95.1 µg/g lipid
- CED, Liver all-trans RA concentration (M, CES 5%, model E2): 1920 µg/g lipid
- CED, Liver retinol amount (M, CES 5%, model E2): 1860 µg/g lipid
- CED, Liver retinyl esters amount (M, CES 5%, model E2): 620 µg/g lipid
- CED-L, Kidney retinol amount (M, CES 5%, model E2): 638 µg/g lipid
- CED-L, Kidney retinol concentration (M, CES 5%, model E2): 640 µg/g lipid
- CED-L, Liver all-trans RA amount (M, CES 5%, model E2): 36.8 µg/g lipid
- CED-L, Liver all-trans RA concentration (M, CES 5%, model E2): 1143 µg/g lipid
- CED-L, Liver retinol amount (M, CES 5%, model E2): 1111 µg/g lipid
- CED-L, Liver retinyl esters amount (M, CES 5%, model E2): 525 µg/g lipid
- CED, Kidney retinyl esters amount (M, CES 5%, model E4): 38.8 µg/g lipid
- CED, Kidney retinyl esters concentration (M, CES 5%, model E4): 42.2 µg/g lipid
- CED, Liver retinol concentration (M, CES 5%, model E4): 31.2 µg/g lipid
- CED, Liver retinyl esters concentration (M, CES 5%, model E4): 108 µg/g lipid
- CED-L, Kidney retinyl esters amount (M, CES 5%, model E4): 12.5 µg/g lipid
- CED-L, Kidney retinyl esters concentration (M, CES 5%, model E4): 13.6 µg/g lipid
- CED-L, Liver retinol concentration (M, CES 5%, model E4): 18.8 µg/g lipid
- CED-L, Liver retinyl esters concentration (M, CES 5%, model E4): 60.1 µg/g lipid
- CED, Kidney retinol amount (M, CES 10%, model E2): 1750 µg/g lipid
- CED, Kidney retinol concentration (M, CES 10%, model E2): 1690 µg/g lipid
- CED, Liver all-trans RA amount (M, CES 10%, model E2): 196 µg/g lipid
- CED, Liver all-trans RA concentration (M, CES 10%, model E2): 3750 µg/g lipid
- CED, Liver retinol amount (M, CES 10%, model E2): 3820 µg/g lipid
- CED, Liver retinyl esters amount (M, CES 10%, model E2): 1270 µg/g lipid
- CED-L, Kidney retinol amount (M, CES 10%, model E2): 1244 µg/g lipid
- CED-L, Kidney retinol concentration (M, CES 10%, model E2): 1250 µg/g lipid
- CED-L, Liver all-trans RA amount (M, CES 10%, model E2): 76 µg/g lipid
- CED-L, Liver all-trans RA concentration (M, CES 10%, model E2): 2233 µg/g lipid
- CED-L, Liver retinol amount (M, CES 10%, model E2): 2282 µg/g lipid
- CED-L, Liver retinyl esters amount (M, CES 10%, model E2): 1078 µg/g lipid
- CED, Kidney retinyl esters amount (M, CES 10%, model E4): 78.3 µg/g lipid
- CED, Kidney retinyl esters concentration (M, CES 10%, model E4): 85.2 µg/g lipid
- CED, Liver retinol concentration (M, CES 10%, model E4): 66.6 µg/g lipid
- CED, Liver retinyl esters concentration (M, CES 10%, model E4): 225 µg/g lipid
- CED-L, Kidney retinyl esters amount (M, CES 10%, model E4): 25.2 µg/g lipid
- CED-L, Kidney retinyl esters concentration (M, CES 10%, model E4): 27.5 µg/g lipid
- CED-L, Liver retinol concentration (M, CES 10%, model E4): 40.0 µg/g lipid
- CED-L, Liver retinyl esters concentration (M, CES 10%, model E4): 126 µg/g lipid
- Emax (F, model E2, read-out: Maximum response, Kidney all-trans RA amount): 18.2%
- Emax (F, model E2, read-out: Maximum response, Kidney all-trans RA concentration): 20.7%
- Emax (F, model E2, read-out: Maximum response, Kidney retinol amount): 28%
- Emax (F, model E2, read-out: Maximum response, Kidney retinol concentration): 30.7%
- Emax (F, model E2, read-out: Maximum response, Liver retinol amount): -18.5%
- Emax (F, model E2, read-out: Maximum response, Liver retinol concentration): -43.9%
- Emax (F, model E2, read-out: Maximum response, Liver retinyl esters amount): -30.1%
- Emax (F, model E2, read-out: Maximum response, Liver retinyl esters concentration): -51.9%
- Emax (F, model E2, read-out: Maximum response, Serum retinol concentration): 25%
